# Test system: SEM cells
# Experiment: cell viability relative to DMSO control; higher = less cytotoxic
# Conditions: 48 h
# Summary of the method: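 Before seeding, each leukemia line was adapted for at least four passages in each medium. NOMO1 or SEM cells (500 cells/well) and P12-Ichikawa cells (1000 cells/well) went into 1536-well plates at 5 μl, then received library compounds in DMSO by pin dosing across 11 threefold concentrations, 47 μM to 0.79 nM. Readout was CellTiter-Glo One luminescence after 48 h at 37°C, and viability is given as a per-plate percentage of DMSO wells, with cell-free wells as background.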
# [1] = HPLM + 10% dialyzed FBS, 0.000781 µM
# [2] = HPLM + 10% dialyzed FBS, 0.00234 µM
# [3] = HPLM + 10% dialyzed FBS, 0.00702 µM
# [4] = HPLM + 10% dialyzed FBS, 0.0211 µM
# [5] = HPLM + 10% dialyzed FBS, 0.0632 µM
# [6] = HPLM + 10% dialyzed FBS, 0.19 µM
# [7] = HPLM + 10% dialyzed FBS, 0.569 µM
# [8] = HPLM + 10% dialyzed FBS, 1.71 µM
# [9] = HPLM + 10% dialyzed FBS, 5.12 µM
# [10] = HPLM + 10% dialyzed FBS, 15.4 µM
# [11] = HPLM + 10% dialyzed FBS, 46.1 µM
# [12] = RPMI 5 mM glucose + 10% FBS, 0.000781 µM
# [13] = RPMI 5 mM glucose + 10% FBS, 0.00234 µM
# [14] = RPMI 5 mM glucose + 10% FBS, 0.00702 µM
# [15] = RPMI 5 mM glucose + 10% FBS, 0.0211 µM
# [16] = RPMI 5 mM glucose + 10% FBS, 0.0632 µM
# [17] = RPMI 5 mM glucose + 10% FBS, 0.19 µM
# [18] = RPMI 5 mM glucose + 10% FBS, 0.569 µM
# [19] = RPMI 5 mM glucose + 10% FBS, 1.71 µM
# [20] = RPMI 5 mM glucose + 10% FBS, 5.12 µM
# [21] = RPMI 5 mM glucose + 10% FBS, 15.4 µM
# [22] = RPMI 5 mM glucose + 10% FBS, 46.1 µM
# [23] = RPMI 5 mM glucose + 10% dialyzed FBS, 0.000781 µM
# [24] = RPMI 5 mM glucose + 10% dialyzed FBS, 0.00234 µM
# [25] = RPMI 5 mM glucose + 10% dialyzed FBS, 0.00702 µM
# [26] = RPMI 5 mM glucose + 10% dialyzed FBS, 0.0211 µM
# [27] = RPMI 5 mM glucose + 10% dialyzed FBS, 0.0632 µM
# [28] = RPMI 5 mM glucose + 10% dialyzed FBS, 0.19 µM
# [29] = RPMI 5 mM glucose + 10% dialyzed FBS, 0.569 µM
# [30] = RPMI 5 mM glucose + 10% dialyzed FBS, 1.71 µM
# [31] = RPMI 5 mM glucose + 10% dialyzed FBS, 5.12 µM
# [32] = RPMI 5 mM glucose + 10% dialyzed FBS, 15.4 µM
# [33] = RPMI 5 mM glucose + 10% dialyzed FBS, 46.1 µM
SMILES,cell viability [1],cell viability [2],cell viability [3],cell viability [4],cell viability [5],cell viability [6],cell viability [7],cell viability [8],cell viability [9],cell viability [10],cell viability [11],cell viability [12],cell viability [13],cell viability [14],cell viability [15],cell viability [16],cell viability [17],cell viability [18],cell viability [19],cell viability [20],cell viability [21],cell viability [22],cell viability [23],cell viability [24],cell viability [25],cell viability [26],cell viability [27],cell viability [28],cell viability [29],cell viability [30],cell viability [31],cell viability [32],cell viability [33]
CC[C@]1(O)C[C@H]2CN(CCC3=C([NH]C4=C3C=CC=C4)[C@@](C2)(C(=O)OC)C5=CC6=C(C=C5OC)N(C=O)[C@H]7[C@](O)([C@H](OC(C)=O)[C@]8(CC)\C=C/C[N@@]9CC[C@]67[C@H]89)C(=O)OC)C1,114%,104%,95.2%,84%,36.5%,24.7%,20.7%,23.2%,16.4%,10.7%,7.67%,70.8%,70.8%,67%,39.6%,13.4%,11%,12%,8.09%,4.93%,3.51%,2.93%,99.8%,108%,106%,90.3%,46.3%,18%,16.2%,18.1%,11.5%,6.29%,5.26%
CC1SC/2=C(C(O)=O)/C(=O)C3=CC(=C(C=C3N12)N4CCN(CC4)C\C5=C(C)\OC(=O)O5)F (stereo unspecified),,,,,,,,,,,,61.5%,119%,128%,121%,124%,123%,132%,111%,121%,114%,112%,47.8%,125%,143%,130%,133%,102%,140%,126%,115%,116%,104%
Nc1nc(-c2nn(Cc3ccccc3F)c3ncccc23)nc(N)c1N1CCOCC1,88.9%,87.4%,96%,96.1%,101%,110%,99.3%,116%,104%,93.5%,89.8%,98%,84.6%,103%,115%,106%,111%,111%,121%,94.2%,89.6%,80.6%,93.8%,85.6%,113%,99.9%,104%,85.2%,104%,126%,101%,96.2%,90.9%
O=C(Nc1ccc(OC(F)(F)F)cc1)c1sccc1NCc1ccnc2ccccc12,115%,115%,114%,127%,125%,115%,122%,82.3%,47.6%,24.8%,16.8%,,,,,,,,,,,,122%,117%,127%,135%,125%,136%,130%,99.2%,87.8%,24.1%,15.8%
OC[C@H]1O[C@@H](Oc2ccc(O)cc2)[C@H](O)[C@@H](O)[C@@H]1O,68.3%,82.3%,75.3%,93%,90.1%,95.1%,95.7%,19.1%,93.1%,77.7%,76.3%,71.7%,90.8%,73.7%,96.3%,90.3%,95.4%,102%,17%,82.3%,103%,77.2%,86.2%,81.8%,92.2%,87.8%,72%,101%,105%,22.1%,97.9%,88%,81.2%
O=C/1\C=C(/OC(=C1)/C2=C3SC4=C(SC3=CC=C2)C=CC=C4)N5CCOCC5,74.3%,84.1%,92.6%,21.5%,99.7%,105%,102%,104%,96.3%,90.3%,86.7%,85.8%,92.7%,101%,15.8%,109%,117%,108%,105%,106%,105%,112%,91.5%,87.6%,88%,15.5%,93%,99.1%,96%,108%,91.4%,85.5%,91.3%
